# Legend:
# [1] = tested on: Pseudomonas aeruginosa (ATCC27853); assay: Growth of Pseudomonas aeruginosa; assay type: cell-based; conditions: peptide 1 μmol/L, 37°C, 3 hours, colony count, n=3
# Description: Pseudomonas aeruginosa (ATCC27853) was purchased from American Type Culture Collection (ATCC) and cultured in Luria Broth (LB) medium with shaking at 37 °C. For construction of ampicillin-resistant MSI001 strain (MSI001-Amp^r), the pET14b plasmid carrying Amp^r marker gene was introduced into the wild type MSI001 strain. The MSI001-Amp^r strain was cultured in LB medium supplemented with Ampicillin of 100 µg/ml at 37 °C.
# Figure S4. Inhibitory effect of LL37 and VTK-LL37 fusion peptides on bacterial growth. a Effect of VTK-LL37 on the growth of Ampicillin resistant (Amp^r) MSI001 bacteria. The bacterial strain MSI001 was transfected with pET14b plasmid to produce an Ampicillin resistant (Amp^r) MSI001 strain. The VTK-LL37 or LL37 peptide was added to the cultured MSI001-Amp^r bacteria (1×10^3 CFU/ml) with a final concentration of 1 μmol/L. After incubation with the VTK-LL37 or LL37 peptides at 37°C for 3 hours, bacterial colonies were counted. b Effect of VTK-LL37 on the growth of Pseudomonas aeruginosa. The bacterial colonies of Pseudomonas aeruginosa were counted as above. […]
# E. coli MSI001 = assay: Biofilm detection (crystal violet, A570); assay type: cell-based, Escherichia coli; conditions: peptide 0-4 μmol/L, 37 °C, 3 days, A570, n = 5
# Description: Fig. 6 Antimicrobial activity of the C7C-LL37 fusion peptides in vitro. a Primary structures and physical properties of the C7C and LL37 fusion peptides, including LL37, VTK-LL37, LL37-VTK, KYY-LL37 and LL37-KYY, ISS-LL37, INS-LL37. Net charge, PI and GRAVY values were acquired as described above. b Inhibitory effect of C7C-LL37 fusion peptides on bacterial growth. A C7C-LL37 fusion peptide or LL37 alone was added to the cultured bacterial strain MSI001 (1 × 10^3 CFU) at final concentrations of 0.25 μmol/L, 0.5 μmol/L and 1 μmol/L. Sterile DPBS was used as control. After incubation with the C7C-LL37 or LL37 peptides at 37 °C for different times (1-8 h), bacterial colonies were counted. n = 3. *P < 0.05, VTK-LL37 group compared to LL37 group; ^#P < 0.05, LL37-VTK group compared to LL37 group. c, d Inhibitory effect of VTK-LL37 on biofilm formation. […] The biofilm was stained with 1% crystal violet, and the precipitates were dissolved in 95% ethanol, followed by detection of absorbance at 570 nm (A570) (c). […]
# When the OD600 of the bacterial suspension reached 1.0, the bacteria were transferred to a 96-well plate, and the VTK-LL37 or LL37 peptide was added at final concentrations of 0.5 μmol/L, 1 μmol/L, 2 μmol/L, or 4 μmol/L, followed by incubation at 37 °C. […] Bacterial biofilms were observed by microscopy and quantitated by spectrometry. […]
sequence,measurement,setting,value
CVTKLGSLCVPGVGLLGDFFRKSKEKIGKEFKRIVQRIKDFLRNLVPRTES [VTK-LL37],inhibitory effect on growth of Pseudomonas aeruginosa,[1],showed inhibitory effect on the growth of Pseudomonas aeruginosa
same,inhibition of biofilm formation,E. coli MSI001,"inhibited biofilm formation of E. coli MSI001, and VTK-LL37 had a stronger inhibition of biofilm formation at a low dose than LL37 alone"
